Measured values as given in US10770169B2, “Method of providing a treatment to a subject based on a dynamic pathway map” (THE REGENTS OF THE UNIVERSITY OF CALIFORNIA, priority 2010, dated 2020).
Where two headings read alike, the source gives them in different places.

System: panel of 55 breast cancer cell lines
Test: Cell growth inhibition assay (Cell Titer Glo, 72 h, 9 doses; GI50, TGI, LC50)
Assay type: cell-based, human
Settings: Homo sapiens, read-out: GI50 (converted)

For CC(C)C[C@H](NC(=O)[C@H](Cc1ccccc1)NC(=O)c1cnccn1)B(O)O [Bortezomib], the GI50 (600MPE cell line, censored GI50 values) was 427 nM, the GI50 (AU565, AU565 cell line, censored GI50 values) was 5.25 nM and the GI50 (AU565, cell line AU565) was 5.25 nM. For the same compound, the GI50 (BT-20, BT20 cell line, censored GI50 values) was 46.8 nM, the GI50 (BT-20, cell line BT20) was 46.8 nM and the GI50 (BT-474, BT474 cell line, censored GI50 values) was 7.41 nM. For the same compound, the GI50 (BT-474, cell line BT474) was 7.41 nM, the GI50 (BT-483, BT483 cell line, censored GI50 values) was 19.5 nM and the GI50 (BT-483, cell line BT483) was 19.5 nM. It also gave a GI50 (BT-549, BT549 cell line, censored GI50 values) of 6.03 nM, a GI50 (BT-549, cell line BT549) of 6.03 nM and a GI50 (CAMA-1, CAMA1 cell line, censored GI50 values) of 16.6 nM. For the same compound, the GI50 (CAMA-1, cell line CAMA1) was 16.6 nM, the GI50 (HCC38, HCC38 cell line, censored GI50 values) was 11 nM and the GI50 (HCC38, cell line HCC38) was 11 nM. It also gave a GI50 (HCC70, HCC70 cell line, censored GI50 values) of 1.78 nM, a GI50 (HCC70, cell line HCC70) of 1.78 nM and a GI50 (HCC202, HCC202 cell line, censored GI50 values) of 7.24 nM. The GI50 (HCC202, cell line HCC202) was 7.24 nM, the GI50 (HCC1143, HCC1143 cell line, censored GI50 values) was 8.51 nM and the GI50 (HCC1143, cell line HCC1143) was 8.51 nM. For the same compound, the GI50 (HCC1187, HCC1187 cell line, censored GI50 values) was 3.39 nM, the GI50 (HCC1187, cell line HCC1187) was 3.39 nM and the GI50 (HCC1395, HCC1395 cell line, censored GI50 values) was 7.24 nM. The GI50 (HCC1395, cell line HCC1395) was 7.24 nM, the GI50 (HCC1419, HCC1419 cell line, censored GI50 values) was 4.37 nM and the GI50 (HCC1419, cell line HCC1419) was 4.37 nM. The GI50 (HCC1428, HCC1428 cell line, censored GI50 values) was 91.2 nM, the GI50 (HCC1428, cell line HCC1428) was 91.2 nM and the GI50 (HCC1500, HCC1500 cell line, censored GI50 values) was 12.3 nM. It also gave a GI50 (HCC1500, cell line HCC1500) of 12.3 nM, a GI50 (HCC1806, HCC1806 cell line, censored GI50 values) of 22.9 nM and a GI50 (HCC1806, cell line HCC1806) of 22.9 nM. The GI50 (HCC1937, HCC1937 cell line, censored GI50 values) was 7.59 nM, the GI50 (HCC1937, cell line HCC1937) was 7.59 nM and the GI50 (HCC1954, HCC1954 cell line, censored GI50 values) was 10 nM. For the same compound, the GI50 (HCC1954, cell line HCC1954) was 10 nM, the GI50 (HCC2185 cell line, censored GI50 values) was 4.47 nM and the GI50 (HCC3153 cell line, censored GI50 values) was 10.5 nM. For the same compound, the GI50 (LY2 cell line, censored GI50 values) was 603 nM, the GI50 (MCF7, MCF7 cell line, censored GI50 values) was 19.1 nM and the GI50 (MCF7, cell line MCF7) was 19.1 nM. For the same compound, the GI50 (MDA-MB-134-VI, MDAMB134VI cell line, censored GI50 values) was 8.32 nM, the GI50 (MDA-MB-157, MDAMB157 cell line, censored GI50 values) was 6.92 nM and the GI50 (MDA-MB-157, cell line MDAMB157) was 6.92 nM. It also gave a GI50 (MDA-MB-175-VII, MDAMB175VII cell line, censored GI50 values) of 5.25 nM, a GI50 (MDA-MB-231, MDAMB231 cell line, censored GI50 values) of 27.5 nM and a GI50 (MDA-MB-231, cell line MDAMB231) of 27.5 nM. For the same compound, the GI50 (MDA-MB-361, MDAMB361 cell line, censored GI50 values) was 6030 nM, the GI50 (MDA-MB-361, cell line MDAMB361) was 6030 nM and the GI50 (MDA-MB-415, MDAMB415 cell line, censored GI50 values) was 32.4 nM. The GI50 (MDA-MB-415, cell line MDAMB415) was 32.4 nM, the GI50 (MDA-MB-436, MDAMB436 cell line, censored GI50 values) was 8.71 nM and the GI50 (MDA-MB-436, cell line MDAMB436) was 8.71 nM. For the same compound, the GI50 (MDA-MB-453, MDAMB453 cell line, censored GI50 values) was 6.92 nM, the GI50 (MDA-MB-453, cell line MDAMB453) was 6.92 nM and the GI50 (MDA-MB-468, MDAMB468 cell line, censored GI50 values) was 14.1 nM. The GI50 (MDA-MB-468, cell line MDAMB468) was 14.1 nM, the GI50 (SK-BR-3, SKBR3 cell line, censored GI50 values) was 7.59 nM and the GI50 (SK-BR-3, cell line SKBR3) was 7.59 nM. It also gave a GI50 (SUM52PE, SUM52PE cell line, censored GI50 values) of 5.25 nM, a GI50 (SUM52PE, cell line SUM52PE) of 5.25 nM and a GI50 (SUM149PT, SUM149PT cell line, censored GI50 values) of 7.41 nM. It also gave a GI50 (SUM149PT, cell line SUM149PT) of 7.41 nM, a GI50 (SUM185PE, SUM185PE cell line, censored GI50 values) of 5.37 nM and a GI50 (SUM185PE, cell line SUM185PE) of 5.37 nM. It also gave a GI50 (SUM225CWN, SUM225CWN cell line, censored GI50 values) of 10.5 nM, a GI50 (SUM225CWN, cell line SUM225CWN) of 10.5 nM and a GI50 (SUM1315MO2, SUM1315MO2 cell line, censored GI50 values) of 13.8 nM. For the same compound, the GI50 (SUM-159-PT, SUM159PT cell line, censored GI50 values) was 7.41 nM, the GI50 (SUM-159-PT, cell line SUM159PT) was 7.41 nM and the GI50 (T47D, T47D cell line, censored GI50 values) was 8.32 nM. The GI50 (T47D, cell line T47D) was 8.32 nM, the GI50 (UACC-812, UACC812 cell line, censored GI50 values) was 24 nM and the GI50 (UACC-812, cell line UACC812) was 24 nM. The GI50 (UACC-893, UACC893 cell line, censored GI50 values) was 0.646 nM, the GI50 (UACC-893, cell line UACC893) was 0.646 nM and the GI50 (ZR-75-1, ZR751 cell line, censored GI50 values) was 17.4 nM. For the same compound, the GI50 (ZR-75-1, cell line ZR751) was 17.4 nM, the GI50 (ZR-75B, ZR75B cell line, censored GI50 values) was 132 nM and the GI50 (ZR-75B, cell line ZR75B) was 132 nM. For the same compound, the GI50 (cell line 600MPE) was 427 nM, the GI50 (cell line HCC2185) was 4.47 nM and the GI50 (cell line HCC3153) was 10.5 nM. For the same compound, the GI50 (cell line LY2) was 603 nM, the GI50 (cell line MDAMB134V) was 8.32 nM and the GI50 (cell line MDAMB175V) was 5.25 nM. It also gave a GI50 (cell line SUM1315MO) of 13.8 nM.
